Measured values from ChEMBL document CHEMBL4190205 (2017).

Tested on: Human immunodeficiency virus
Assay: Antiviral activity against HIV infected in human 1A2 cells assessed as protection against virus-induced cytopathic effect by measuring cell viability at 5 ug/ml after 96 hrs by MTT assay relative to control
Format: functional

SMILES | Activity
O=C(NCCc1ccccc1C(=O)NCCc1ccccc1)NCCc1ccccc1C(=O)NCCc1ccccc1C(=O)NCCc1ccccc1 | 17 - 48%
O=C(NCCc1ccccc1)NCCc1ccccc1C(=O)NCCc1ccccc1C(=O)NCCc1ccccc1 | 17 - 48%
O=C(NCCc1ccccc1C(=O)NCCc1ccccc1)NCCc1ccccc1C(=O)NCCc1ccccc1 | 17 - 48%
O=C(NCCc1ccccc1)NCCc1ccccc1C(=O)NCCc1ccccc1C(=O)NCCc1ccccc1C(=O)NCCc1ccccc1 | 17 - 48%
COC(=O)NCCc1ccccc1C(=O)NCCc1ccccc1 | 17 - 48%
COC(=O)NCCc1ccccc1C(=O)NCCc1ccccc1C(=O)NCCc1ccccc1C(=O)NCCc1ccccc1 | 17 - 48%
COC(=O)NCCc1ccccc1C(=O)NCCc1ccccc1C(=O)NCCc1ccccc1C(=O)NCCc1ccccc1C(=O)NCCc1ccccc1 | 17 - 48%
COC(=O)NCCc1ccccc1C(=O)NCCc1ccccc1C(=O)NCCc1ccccc1 | 17 - 48%
